Measured values from patent US6624140B1, “Synthetic peptides with antimicrobial and endotoxin neutralizing properties for management of the sepsis syndrome” (Academisch Ziekenhuis Bij de Universiteit van Amsterdam …, priority 1997, dated 2003).
No end group written: not given here.

How the values were obtained:
[1] = Double-immunodiffusion against Re-LPS; format: binding, Escherichia coli; settings: 0.8% agarose, 16 h at 20° C.; data not shown
Method: Double-immunodiffusion of the peptides of the invention against ‘rough’ R-type E. coli D31m4 Re-LPS (List Biological Laboratories Inc., Calif.) or the structurally more complex ‘smooth’ S-type E. coli 0111:B4 LPS (Sigma Chemical Co., Rockford, Ill.) was performed in 0.8% (w/v) agarose containing 50 mM Tris and 0.1% (w/v) Triton X100, pH 7.5. for 16 h at 20° C. PmB and BPI(85-102) were included as control compounds for comparative purposes. The microprecipitates formed were visualized by Coommassie brilliant blue staining. […] Since the amount of precipitate formed is a function of valency, the peptides of the invention appear to be capable of a high degree of intermolecular binding of LPS molecules via the Lipid A moieties. […] The degree of precipitation of endotoxin by the synthetic peptides according to the invention was determined by measurement of the optical density of insoluble complexes formed at 340 nm (FIG. 2). […] Binding characteristics of biotinylated derivatives of the synthetic peptides BP1, BP2, BP2.1 and the control peptide BPI(85-102) were determined on ELISA microtiter plates coated with E. coli D31m4 Lipid A. Specific binding of the biotinylated peptides to the immobilized Lipid A was determined by development with Streptavidin-HRP and 3, 5, 3′, 5′ tetra-methylbenzidine (TMB) substrate and expressed as the corrected optical density at 450 nm. […]

[2] = Endotoxin Inhibition ELISA (EIE), competitive inhibition of Lipid A binding; design: species or system Escherichia coli; settings: biotinylated BP2; 1 pg/ml E. coli 0111:B4 LPS
Method: FIG. 6. Competitive inhibition of binding of synthetic peptide BP2 to immobilized lipid A by endotoxin. Biotinylated BP2 peptide in the indicated concentration range was pre-incubated with E. coli 0111:B4 LPS at 1 pg/ml for 20 min at 23° C. and the residual endotoxin binding activity was determined with the use of a lipid A binding ELISA microplate assay. Individual values are the means of triplicate experiments corrected for non-specific binding.
FIGS. 7A and 7B. Detection of endotoxin in solution with a Lipid A binding assay, the endotoxin inhibition ELISA (EIE) microplate assay. Dose-response of residual LPS binding activity of synthetic peptide BP2 at 8 ng/ml after pre-incubation with E. coli 0111:B4 LPS in the ranges from 0.1 to 1000 pg/ml (Panel A) or from 0.1 to 100 pg/ml (Panel B).
Capture of the TAG labeled J5 LPS by immobilized synthetic peptide was quantitated by electrochemiluminescence detection subsequent to washing steps with phosphate buffer containing 0.1% (w/v) Triton X100 to remove excess unbound LPS. […] This confirms the high capacity of immobilized peptides of the invention for endotoxin in solution. […] LPS with high affinity and are universal lipid A binding ligands. […]

[3] = Tolerability of i.p. peptide in mice; format: in vivo; settings: 2.5 and 5 mg/Kg i.p.; 2 week observation; Swiss mice

## Ile-Lys-Ile-Ser-Gly-Lys-Trp-Lys-Ala-Gin-Lys-Arg-Phe-Leu-Lys-Met-Ser-Gly-(Cys) (IKISGKWKAQKRFLKMSGC; listed as Homo sapiens) [BPI(85-102), reference compound]
[1]
  precipitation of Re LPS: considerably less

## GKWKLFKKAFKKFLKILAC-OH [BP2, Gly-Lys-Trp-Lys-Leu-Phe-Lys-Lys-Ala-Phe-Lys-Lys-Phe-Leu-Lys-Ile-Leu-Ala-Cys]
[2]
  inhibition of binding of peptide to immobilized Lipid A: 65%
[3]
  tolerability: well tolerated with no adverse effects
